Reference: ChEMBL document CHEMBL1131507, “Arylpiperazines with serotonin-3 antagonist activity: a comparative molecular field analysis” (J Med Chem, 1998)

The molecules below were run against T1, Serotonin 3 (5-HT3) receptor (Rattus norvegicus, UniProt P35563+Q9JJ16) (assay: Rat 5-hydroxytryptamine 3 receptor (5-HT3) antagonist).
T1 sequence (P35563 whole entry): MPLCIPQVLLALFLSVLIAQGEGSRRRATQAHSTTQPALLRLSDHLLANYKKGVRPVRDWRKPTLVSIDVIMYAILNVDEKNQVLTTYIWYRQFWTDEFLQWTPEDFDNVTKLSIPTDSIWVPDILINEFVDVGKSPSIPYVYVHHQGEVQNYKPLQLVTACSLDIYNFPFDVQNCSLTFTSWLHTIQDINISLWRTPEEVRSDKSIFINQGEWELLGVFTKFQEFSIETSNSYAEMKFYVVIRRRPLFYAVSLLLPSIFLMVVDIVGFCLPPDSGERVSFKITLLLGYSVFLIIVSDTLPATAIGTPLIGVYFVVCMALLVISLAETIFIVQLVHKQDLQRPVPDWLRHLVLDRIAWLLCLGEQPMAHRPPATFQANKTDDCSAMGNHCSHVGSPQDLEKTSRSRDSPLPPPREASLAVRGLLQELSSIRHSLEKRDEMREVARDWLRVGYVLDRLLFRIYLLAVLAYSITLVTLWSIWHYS
T1 sequence (Q9JJ16 whole entry): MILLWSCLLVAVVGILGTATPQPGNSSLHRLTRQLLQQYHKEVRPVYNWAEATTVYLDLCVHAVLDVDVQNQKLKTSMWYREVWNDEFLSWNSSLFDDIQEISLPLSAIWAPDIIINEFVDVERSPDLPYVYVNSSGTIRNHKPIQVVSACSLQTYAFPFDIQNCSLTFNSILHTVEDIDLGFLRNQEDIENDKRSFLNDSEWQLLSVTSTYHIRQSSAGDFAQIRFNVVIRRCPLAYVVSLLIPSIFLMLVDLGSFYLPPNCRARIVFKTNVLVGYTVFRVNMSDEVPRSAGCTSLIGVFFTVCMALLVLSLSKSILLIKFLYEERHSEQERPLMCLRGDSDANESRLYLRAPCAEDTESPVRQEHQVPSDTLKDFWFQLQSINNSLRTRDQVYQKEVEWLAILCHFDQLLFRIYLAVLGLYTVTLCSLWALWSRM
Format: functional

Structure (SMILES)	Ki
CCN1CCN(c2nc3ccccc3c3c2cc(OC)c2ccccc23)CC1	224 nM
CN(C)CCSc1nc2ccccc2c2c1COc1ccccc1-2	10000 nM
c1ccc2c3c(c(N4CCNCC4)nc2c1)CCCC3	0.1 nM
CN(C)CCSc1nc2ccccc2c2c1ccc1ccccc12	10000 nM
CN1CCN(c2nc3ccccc3c3c2CN(C)CC3)CC1	3.16 nM
c1ccc2c(c1)ccc1c(N3CCNCC3)nc3ccccc3c12	132 nM
CCc1c(C)c(N2CCN(C)CC2)nc2ccccc12	0.537 nM
CN1CCN(c2nc3ccccc3c3c2CCCC3)CC1	0.0977 nM
CN1CCN(c2nc3ccccc3c3c2CSCC3)CC1	0.398 nM
COc1cc2c(SCCN(C)C)nc3ccccc3c2c2ccccc12	10000 nM
CN(C)CCSc1nc2ccccc2c2c1CCc1ccccc1-2	10000 nM
CN1CCN(c2nc3ccccc3c3c2CCC3)CC1	0.0708 nM
